Legend:
[1] = tested on: ISC-enriched organoids; experiment: Primary screen, 384-well 2.5-D organoid differentiation (ENR+CD, 6 days): carbachol-induced lysozyme secretion (LYZ.S); type: cell-based, murine; conditions: for Dose.FC.LYZ.S: primary screen, ENR+CD 6 days, FC vs plate median
Description: (§1) High-throughput screening.

[2] = tested on: ISC-enriched organoids; experiment: Primary screen, 384-well 2.5-D organoid differentiation (ENR+CD, 6 days): basal lysozyme secretion (LYZ.NS); type: cell-based, murine; conditions: for Dose.FC.LYZ.NS / Z.LYZ.NS: primary screen; for Dose.FC.LYZ.NS: ENR+CD 6 days, FC vs plate median; for Z.LYZ.NS: standard z score of FC
Description: as §1

[3] = tested on: ISC-enriched organoids; experiment: Primary screen, 384-well 2.5-D organoid differentiation (ENR+CD, 6 days, Target Selective Inhibitor Library, vs whole-plate median): ATP (CellTiter-Glo 3D, CTG); conditions: for Dose.FC.CTG / Z.CTG: primary screen; for Dose.FC.CTG: ENR+CD 6 days, FC vs plate median; for Z.CTG: standard z score of FC
[4] = dose 0.08 uM (1st of 4 lines per treatment; dose not printed in this part)
[5] = dose 0.40 uM (2nd of 4 lines per treatment; dose not printed in this part)

| Compound | Dose.FC.LYZ.S ([1]; dose 0.08 uM) [log 2 fold change] | Dose.FC.LYZ.S ([1]; dose 0.40 uM) [log 2 fold change] | Dose.FC.LYZ.S ([1]; dose 2.00 uM) [log 2 fold change] | Dose.FC.LYZ.S ([1]; dose 10.00 uM) [log 2 fold change] | Dose.FC.LYZ.NS ([2]; dose 0.08 uM) [log 2 fold change] | Z.LYZ.NS ([2]; dose 0.08 uM) | Dose.FC.LYZ.NS ([2]; dose 0.40 uM) [log 2 fold change] | Z.LYZ.NS ([2]; dose 0.40 uM) | Dose.FC.LYZ.NS ([2]; dose 2.00 uM) [log 2 fold change] | Z.LYZ.NS ([2]; dose 2.00 uM) | Dose.FC.LYZ.NS ([2]; dose 10.00 uM) [log 2 fold change] | Z.LYZ.NS ([2]; dose 10.00 uM) | Dose.FC.CTG ([3]; dose 0.08 uM) [log 2 fold change] | Z.CTG ([3]; dose 0.08 uM) | Dose.FC.CTG ([3]; dose 0.40 uM) [log 2 fold change] | Z.CTG ([3]; dose 0.40 uM) | Dose.FC.CTG ([3]; dose 2.00 uM) [log 2 fold change] | Z.CTG ([3]; dose 2.00 uM) | Dose.FC.CTG ([3]; dose 10.00 uM) [log 2 fold change] | Z.CTG ([3]; dose 10.00 uM) | further results |
| --- | --- | --- | --- | --- | --- | --- | --- | --- | --- | --- | --- | --- | --- | --- | --- | --- | --- | --- | --- | --- | --- |
| CC1(C)CCC(c2ccc(Cl)cc2)=C(CN2CCN(c3ccc(C(=O)NS(=O)(=O)c4ccc(N[C@H](CCN5CCOCC5)CSc5ccccc5)c(S(=O)(=O)C(F)(F)F)c4)cc3)CC2)C1 [ABT-263 (Navitoclax)] | −0.010 | −0.020 | −0.205 | −0.400 | 0.012 | 0.104 | 0.007 | 0.062 | −0.143 | −1.248 | −0.259 | −2.259 | −0.212 | −0.507 | −0.264 | −0.631 | −0.368 | −0.878 | −0.962 | −2.298 | SSMD.LYZ.S_Rep (strictly standardized mean difference) [1, 4]: −0.041; Z.LYZ.S (standard z score) [1, 4]: −0.064; SSMD.LYZ.S_Rep (strictly standardized mean difference) [1, 5]: −0.134; Z.LYZ.S (standard z score) [1, 5]: −0.129; SSMD.LYZ.NS_Rep (strictly standardized mean difference) [2, 4]: 0.062; SSMD.LYZ.NS_Rep (strictly standardized mean difference) [2, 5]: 0.062; SSMD.CTG_Rep (strictly standardized mean difference) [3, 4]: −0.462; SSMD.CTG_Rep (strictly standardized mean difference) [3, 5]: −0.777 |
| O=C(c1ccc(F)cc1)N1CCC[C@H](c2nc(-c3ccc(F)cc3)no2)C1 [ADX-47273] | 0.147 | 0.147 | −0.039 | −0.070 | 0.269 | 2.346 | 0.053 | 0.457 | −0.033 | −0.286 | −0.036 | −0.311 | 0.115 | 0.274 | −0.034 | −0.082 | −0.210 | −0.501 | −0.039 | −0.094 | – |
| CN(C)Cc1ccc(-c2nc3cccc4c3n2CCNC4=O)cc1 [AG-14361] | 0.100 | −0.001 | −0.065 | −0.189 | 0.152 | 1.324 | 0.036 | 0.312 | 0.032 | 0.278 | −0.197 | −1.713 | −0.012 | −0.028 | −0.069 | −0.165 | 0.005 | 0.012 | −0.021 | −0.050 | – |
| CN1CCCCC1Cn1cc(C(=O)c2cc([N+](=O)[O-])ccc2I)c2ccccc21 (centres unmarked) [AM1241] | 0.046 | 0.088 | −0.017 | −0.080 | 0.052 | 0.454 | 0.004 | 0.035 | −0.014 | −0.123 | −0.003 | −0.028 | 0.159 | 0.379 | −0.054 | −0.129 | −0.062 | −0.147 | −0.001 | −0.002 | – |
| O=C1NC(=O)/C(=C/c2ccc(-c3ccc(F)cc3O)o2)S1 [AS-252424] | 0.072 | −0.008 | −0.074 | −0.022 | 0.070 | 0.609 | −0.042 | −0.368 | −0.080 | −0.695 | −0.077 | −0.671 | 0.139 | 0.333 | −0.074 | −0.176 | −0.359 | −0.858 | −0.204 | −0.487 | – |
| Cc1cc2c(C(C)C)c(O)c(O)c(C=O)c2c(O)c1-c1c(C)cc2c(C(C)C)c(O)c(O)c(C=O)c2c1O [AT101] | 0.004 | −0.013 | −0.085 | −0.061 | −0.049 | −0.426 | −0.068 | −0.592 | −0.036 | −0.311 | −0.052 | −0.452 | −0.198 | −0.472 | 0.019 | 0.044 | −0.216 | −0.515 | −0.056 | −0.133 | – |
| CCNC(=O)c1noc(-c2cc(C(C)C)c(O)cc2O)c1-c1ccc(CN2CCOCC2)cc1 [AUY922 (NVP-AUY922)] | −0.209 | −0.184 | −0.216 | −0.214 | −0.144 | −1.251 | −0.154 | −1.343 | −0.138 | −1.200 | −0.153 | −1.330 | −1.185 | −2.830 | −1.343 | −3.208 | −1.137 | −2.715 | −1.270 | −3.032 | – |
| C=CC(=O)Nc1cccc(Nc2nc(Nc3ccc(OCCOC)cc3)ncc2F)c1 [AVL-292] | 0.235 | 0.106 | −0.206 | −0.376 | 0.095 | 0.831 | 0.052 | 0.451 | −0.112 | −0.979 | −0.213 | −1.858 | 0.217 | 0.518 | 0.057 | 0.135 | −0.058 | −0.138 | −0.778 | −1.859 | – |
| C[C@@H]1COCCN1c1cc(C2(S(C)(=O)=O)CC2)nc(-c2cccc3[nH]ccc23)n1 [AZ20] | −0.038 | −0.236 | −0.373 | −0.329 | 0.042 | 0.365 | −0.140 | −1.222 | −0.215 | −1.868 | −0.261 | −2.271 | −0.210 | −0.500 | −0.218 | −0.521 | −1.054 | −2.519 | −0.573 | −1.368 | – |
